Source: ChEMBL document CHEMBL3271994, “Diethyl (4baalpha,4calpha,9aalpha,9balpha)-3,6-dichlorocyclobuta[1,2-b:3,4-b']bisbenzofuran-9a,9b(4bH,4cH)-dicarboxylate: the cis,syn photodimer of ethyl 5-chlorobenzofuran-2-carboxylate, an analogue related to the antilipidemic drug clofibrate” (J Med Chem, 1978)
Activity calls are given as the source filed them. The rule behind the calls is not given here.

Tests used:
Rattus norvegicus [1] = test: Antilipidemic activity in purina chow fed Sprague-Dawley rat assessed as reduction of serum cholesterol level at 0.124 mM/kg relative to control; assay type: functional; set-up: scale not given: the % may be the effect or the level left
Rattus norvegicus [2] = test: Antilipidemic activity in triton WR-1339-induced hyperlipidemic Sprague-Dawley rat model assessed as reduction of serum cholesterol level at 0.124 mM/kg relative to control; assay type: functional; set-up: scale not given: the % may be the effect or the level left
Rattus norvegicus [3] = test: Antilipidemic activity in purina chow fed Sprague-Dawley rat assessed as reduction of serum triglyceride level at 0.124 mM/kg relative to control; assay type: functional; set-up: scale not given: the % may be the effect or the level left
Rattus norvegicus [4] = test: Antilipidemic activity in triton WR-1339-induced hyperlipidemic Sprague-Dawley rat model assessed as reduction of serum triglyceride level at 0.124 mM/kg relative to control; assay type: functional; set-up: scale not given: the % may be the effect or the level left
Rattus norvegicus [5] = test: Antilipidemic activity in sucrose fed Sprague-Dawley rat model assessed as serum cholesterol level at 0.4 mmol/kg, po bid administered for 7 days measured after 12 hrs post last dose (reference value: 61.7 +/- 11.6 mg/dL); assay type: functional
Rattus norvegicus [6] = test: Antilipidemic activity in sucrose fed Sprague-Dawley rat model assessed as serum cholesterol level at 0.2 mmol/kg, po bid administered for 7 days measured after 12 hrs post last dose (reference value: 61.7 +/- 11.6 mg/dL); assay type: functional
Rattus norvegicus [7] = test: Antilipidemic activity in sucrose fed Sprague-Dawley rat model assessed as serum triglyceride level at 0.4 mmol/kg, po bid administered for 7 days measured after 12 hrs post last dose (reference value: 91.9 +/- 19.8 mg/dL); assay type: functional
Rattus norvegicus [8] = test: Antilipidemic activity in sucrose fed Sprague-Dawley rat model assessed as serum triglyceride level at 0.2 mmol/kg, po bid administered for 7 days measured after 12 hrs post last dose (reference value: 91.9 +/- 19.8 mg/dL); assay type: functional
Rattus norvegicus [9] = test: Antilipidemic activity in sucrose-fed Sprague-Dawley rat model assessed as reduction of liver cholesterol level at 0.4 mmol/kg, po bid administered for 7 days measured after 12 hrs post last dose (reference value: 1.86 +/- 0.17 mg/gm); assay type: functional
Rattus norvegicus [10] = test: Antilipidemic activity in sucrose-fed Sprague-Dawley rat model assessed as reduction of liver cholesterol level at 0.2 mmol/kg, po bid administered for 7 days measured after 12 hrs post last dose (reference value: 1.86 +/- 0.17 mg/gm); assay type: functional
Rattus norvegicus [11] = test: Antilipidemic activity in sucrose-fed Sprague-Dawley rat model assessed as reduction of liver triglyceride level at 0.4 mmol/kg, po bid administered for 7 days measured after 12 hrs post last dose relative to control; assay type: functional
Rattus norvegicus [12] = test: Antilipidemic activity in sucrose-fed Sprague-Dawley rat model assessed as reduction of liver triglyceride level at 0.2 mmol/kg, po bid administered for 7 days measured after 12 hrs post last dose relative to control; assay type: functional
Rattus norvegicus [13] = test: Antilipidemic activity in sucrose-fed Sprague-Dawley rat model assessed as reduction in HMG-CoA reductase activity at 0.4 mmol/kg, po bid administered for 7 days measured after 12 hrs post last dose relative to control; assay type: functional
Rattus norvegicus [14] = test: Antilipidemic activity in sucrose-fed Sprague-Dawley rat model assessed as reduction in HMG-CoA reductase activity at 0.2 mmol/kg, po bid administered for 7 days measured after 12 hrs post last dose relative to control; assay type: functional
Rattus norvegicus [15] = test: Increase in liver to body weight ratio in sucrose-fed Sprague-Dawley rat model at 0.4 mmol/kg, po bid administered for 7 days measured after 12 hrs post last dose (reference value: 4.07 +/- 0.28 %); assay type: ADME, organism-based; conditions: in vivo
Rattus norvegicus [16] = test: Increase in liver to body weight ratio in sucrose-fed Sprague-Dawley rat model at 0.2 mmol/kg, po bid administered for 7 days measured after 12 hrs post last dose (reference value: 4.07 +/- 0.28 %); assay type: ADME, organism-based; conditions: in vivo
Rattus norvegicus [17] = test: Increase in liver weight in sucrose-fed Sprague-Dawley rat model at 0.4 mmol/kg, po bid administered for 7 days measured after 12 hrs post last dose (reference value: 11.76 +/- 1.32 gm); assay type: ADME, organism-based; conditions: in vivo
Rattus norvegicus [18] = test: Increase in liver weight in sucrose-fed Sprague-Dawley rat model at 0.2 mmol/kg, po bid administered for 7 days measured after 12 hrs post last dose (reference value: 11.76 +/- 1.32 gm); assay type: ADME, organism-based; conditions: in vivo
Rattus norvegicus [19] = test: Increase in microsomal protein level in sucrose-fed Sprague-Dawley rat model at 0.4 mmol/kg, po bid administered for 7 days measured after 12 hrs post last dose (reference value: 32.7 +/- 2.2 mg/gm); assay type: ADME, organism-based; conditions: in vivo
Rattus norvegicus [20] = test: Increase in microsomal protein level in sucrose-fed Sprague-Dawley rat model at 0.2 mmol/kg, po bid administered for 7 days measured after 12 hrs post last dose (reference value: 32.7 +/- 2.2 mg/gm); assay type: ADME, organism-based; conditions: in vivo
Rattus norvegicus [21] = test: Increase in ethylmorphine N-demethylase activity in sucrose-fed Sprague-Dawley rat model at 0.2 mmol/kg, po bid administered for 7 days measured after 12 hrs post last dose relative to control; assay type: ADME, organism-based; conditions: in vivo
Rattus norvegicus [22] = test: Increase in NADPH cytochrome c reductase activity in sucrose-fed Sprague-Dawley rat model at 0.2 mmol/kg, po bid administered for 7 days measured after 12 hrs post last dose relative to control; assay type: ADME, organism-based; conditions: in vivo
Rattus norvegicus [23] = test: Increase in NADPH cytochrome c reductase activity in sucrose-fed Sprague-Dawley rat model at 0.2 mmol/kg, po bid administered for 7 days measured after 12 hrs post last dose (reference value: 148.7 +/- 17.7 nmol/mg/min); assay type: ADME, organism-based; conditions: in vivo
Rattus norvegicus [24] = test: Effect on cytochrome b5 level in sucrose-fed Sprague-Dawley rat model assessed per mg of protein at 0.4 mmol/kg, po bid administered for 7 days measured after 12 hrs post last dose (reference value: 0.184 +/- 0.023 nmol); assay type: ADME, organism-based; conditions: in vivo
Rattus norvegicus [25] = test: Effect on cytochrome b5 level in sucrose-fed Sprague-Dawley rat model assessed per mg of protein at 0.2 mmol/kg, po bid administered for 7 days measured after 12 hrs post last dose (reference value: 0.184 +/- 0.023 nmol); assay type: ADME, organism-based; conditions: in vivo
Rattus norvegicus [26] = test: Effect on cytochrome P450 level in sucrose-fed Sprague-Dawley rat model assessed per mg of protein at 0.2 mmol/kg, po bid administered for 7 days measured after 12 hrs post last dose relative to control; assay type: ADME, organism-based; conditions: in vivo
Rattus norvegicus [27] = test: Effect on cytochrome P450 level in sucrose-fed Sprague-Dawley rat model assessed per mg of protein at 0.2 mmol/kg, po bid administered for 7 days measured after 12 hrs post last dose (reference value: 0.361 +/- […] nmol); assay type: ADME, organism-based; conditions: in vivo
Rattus norvegicus [28] = test: Antilipidemic activity in triton WR-1339-induced hyperlipidemic Sprague-Dawley rat model assessed as reduction of plasma lipid level at 0.124 mM/kg measured 43 hrs after triton WR-1339 challenge
Rattus norvegicus [29] = test: Increase in ethylmorphine N-demethylase activity in sucrose-fed Sprague-Dawley rat model at 0.4 mmol/kg, po bid administered for 7 days measured after 12 hrs post last dose relative to control; assay type: ADME, organism-based; conditions: in vivo
Rattus norvegicus [30] = test: Increase in NADPH cytochrome c reductase activity in sucrose-fed Sprague-Dawley rat model at 0.4 mmol/kg, po bid administered for 7 days measured after 12 hrs post last dose relative to control; assay type: ADME, organism-based; conditions: in vivo
Rattus norvegicus [31] = test: Effect on cytochrome P450 level in sucrose-fed Sprague-Dawley rat model assessed per mg of protein at 0.4 mmol/kg, po bid administered for 7 days measured after 12 hrs post last dose relative to control; assay type: ADME, organism-based; conditions: in vivo

SMILES | Activity (Rattus norvegicus [1]) | Activity (Rattus norvegicus [2]) | Activity (Rattus norvegicus [3]) | Activity (Rattus norvegicus [4]) | Activity (Rattus norvegicus [5]) | Activity (Rattus norvegicus [7]) | Activity (Rattus norvegicus [9]) | Activity (Rattus norvegicus [11]) | Activity (Rattus norvegicus [13]) | Activity (Rattus norvegicus [15]) | Activity (Rattus norvegicus [17]) | Activity (Rattus norvegicus [19]) | Activity (Rattus norvegicus [24]) | Activity (Rattus norvegicus [28]) | other results
CCOC(=O)[C@@]12Oc3ccc(Cl)cc3[C@@H]1[C@@H]1c3cc(Cl)ccc3O[C@@]12C(=O)OCC | 63.9% | 176.7% | 24.3% | 33% | 81 mg/dL | 102.7 mg/dL | 2.1 mg/g | 12.34 mg/g | 2.41 nmol/mg/h | 4.03% | 11.99 g | 38.2 mg/g | 0.19 nmol | inactive | Activity (Rattus norvegicus [6]): 69.5 mg/dL; Activity (Rattus norvegicus [8]): 70.2 mg/dL; Activity (Rattus norvegicus [10]): 1.98 mg/g; Activity (Rattus norvegicus [12]): 8.09 mg/g; Activity (Rattus norvegicus [14]): 2.42 nmol/mg/h; Activity (Rattus norvegicus [16]): 3.69%; Activity (Rattus norvegicus [18]): 11.24 g; Activity (Rattus norvegicus [20]): 41.4 mg/g; Activity (Rattus norvegicus [21]): 157%; Activity (Rattus norvegicus [22]): 123%; Activity (Rattus norvegicus [23]): 168.7 nmol/mg/min; Activity (Rattus norvegicus [25]): 0.179 nmol; Activity (Rattus norvegicus [26]): 138%; Activity (Rattus norvegicus [27]): 0.386 nmol
CCOC(=O)C(C)(C)Oc1ccc(Cl)cc1 [CLOFIBRATE] | 87% | 93.2% | 24.1% | 22.3% | 31.7 mg/dL | 26.9 mg/dL | 1.84 mg/g | 3.21 mg/g | 2.1 nmol/mg/h | 5.24% | 14.3 g | 39.3 mg/g | 0.2 nmol | inactive | Activity (Rattus norvegicus [29]): 180%; Activity (Rattus norvegicus [30]): 163%; Activity (Rattus norvegicus [31]): 262%
